Experimental findings from PMC7011920, “Synthesis and biological evaluation of stilbene derivatives coupled to NO donors as potential antidiabetic agents” (Journal of Enzyme Inhibition and Medicinal Chemistry, 2018) are described below.

One series addresses T1, α-Glucosidase (Saccharomyces cerevisiae, UniProt P53341).
T1 construct: purchased Sigma Aldrich G0660-750UN
The series can be described thus: biochemical. As for the experimental part:
α-Glucosidases, enzymes anchored in the brush border of the small intestine, are responsible for catalysing the hydrolysis of carbohydrates.
α-Glucosidase (G0660-750UN, Sigma Aldrich, St. Louis, MO) and 4-nitrophenyl α-D-glucopyranoside (PNPG, Macklin) were dissolved in phosphate buffer (pH 6.8, 100 mM), and the test compounds were dissolved in DMSO solution. The experiment was divided into blank group, control group, sample blank group and sample group. The reagents were loaded in 96-well plates at the dose of the table (Table 3). The solution was bathed in 37 °C water for 10 min, after the end, enzyme solution was added. After reaction at 37 °C for 20 min, 70 µL Na2CO3 solution ([…]) was added to stop the reaction. All experiments were run in triplicate. […] Since PNPG can produce glucose and p-nitrophenol (PNP) under the action of α-glucosidase, PNP has the greatest absorption at 405 nm. The absorbance was determined by the microplate reader, and the inhibition rate of α-glucosidase and the IC50 value of each sample were calculated according to the formula. Inhibition rate %={[(AC−AB)−(AS−ASB)]/(AC−AB)}×100% where AC is the absorbance of control group; AB is the absorbance of blank group; AS is the absorbance of sample group; ASB is the absorbance of sample blank group.

Another series addresses T2, aldose reductase (ALR2) (Mus musculus, UniProt P45376).
T2 construct: After homogenisation and centrifugation, the crude ALR2 from mice was obtained; from tissue
Kind of series: In vitro ALR2 inhibitory activity (crude enzyme, NADPH decrease at 340 nm). In kind it is biochemical, mice. The procedure: The enzyme aldose reductase (ALR2) is a member of the aldo–keto reductase superfamily. The development and progression of chronic diabetic complications are confirmed to be quite related to the activation and/or over expression of ALR2[25]. Therefore, ALR2 inhibitors may play a critical role in preventing or treating these complications.
After homogenisation and centrifugation, the crude ALR2 from mice was obtained. The inhibitory activity of the compounds on ALR2 was carried out using crude enzyme and different concentrations of the compounds (1–1000 µg/ml) in 200 mM PBS (pH 6.2) containing 0.10 mM NADPH. The reaction was initiated by addition of glyceraldehyde and the decrease in the optical density of NADPH at 340 nm was recorded for 3 min. All experiments were run in triplicate. IC50 of the compounds was calculated. The flavonoid quercetin was used as a reference in the ALR2 assay.

Series [1] has as its system STZ-induced diabetic mice. The series can be described thus: Acute hypoglycaemic assay in STZ-diabetic mice. In kind it is in vivo. To be noted: for Blood glucose concentration: mean ± SEM, six mice. As for the experimental part:
The antidiabetic activity was determined by using a standard method. […] Especially, compound 7c caused significant decreases in blood glucose levels when compared with vehicle-treated groups (p < .05). […] In STZ-diabetic animals, the hypoglycaemic effect of pterostilbene (40 mg/kg of bw) was larger than 50% since 5 h and persisted throughout the experiment. Target compound 7c (40 mg/kg of bw) caused significant decreases in blood glucose levels compared with pterostilbene (40 mg/kg of bw).
Type II DM was induced in mice by a single intraperitoneal injection of freshly prepared STZ (Sigma Aldrich, St. Louis, MO) dissolved in 0.1 M citrate buffer, pH 4.5, in a […] of 120 mg/kg of bw. After seven days of STZ administration, blood glucose levels of each mouse were determined. Mice with blood glucose levels higher than 11 mM were considered diabetic and were included in the study.
STZ-induced diabetic mice and normal mice were placed in single cages with wire-net floors and deprived of food for 12 h before experimentation but allowed free access to tap water throughout. The compounds (at the doses of 10, 40, and 100 mg/kg of bw) were suspended in 0.05% Tween-80 in saline solution. Glibenclamide (10 mg/kg of bw) was suspended in the same vehicle. The target compounds were freshly prepared immediately before experimentation and administered by the intragastrical route at the doses of 10 ml/kg of bw. Control mice received only the vehicle (0.05% Tween-80 in saline solution) by the same route. Blood glucose levels were measured at 0, 1.5, 3, 5, 7, and 9 h after drugs administration.

In series [2] the test system is AGEs (advanced glycation end products) formation. The series can be described thus: In vitro inhibitory activity of AGEs formation (bovine serum albumin/glucose, fluorescence). To be noted: 50% inhibition of fluorescence intensity of AGE relative to 0.1% DMSO; mean ± SD (n = 3). The procedure: Advanced glycation end products are a group of complex and heterogeneous compounds, which are implicated in a number of biochemical abnormalities associated with diabetes[21]^,[22]. Therefore, the discovery of AGEs inhibitors would be beneficial to the prevention and treatment of diabetic or other pathogenic complications.
To prepare the AGE reaction solution, 10 mg/ml of bovine serum albumin in 50 mM PBS (pH 7.4) was added to 0.2 M glucose, and 0.02% sodium azide was added to prevent bacterial growth. The reaction mixture (3 ml) was then mixed with various concentrations (0.5–1000 µg/ml) of the target compounds (1 ml) dissolved in DMSO. After incubating at 37 °C for 14 d, the fluorescence intensity of AGE was determined by a fluorospectrophotometer (PE, Cincinnati, OH) with excitation and emission wavelengths at 350 nm and 420 nm[30], respectively. All experiments were run in triplicate. Aminoguanidine hydrochloride was used as a reference compound. The inhibition rate of AGEs formation and the IC50 value of each sample were calculated according to the formula. Inhibition rate %={[(AC−AB)−(AS−ASB)]/(AC−AB)}×100% where AC is the absorbance of control group (1.0 ml glucose +1.0 ml bovine serum albumin +1.0 ml sodium azide +1.0 ml DMSO); AB is the absorbance of blank group (1.0 ml PBS +1.0 ml bovine serum albumin +1.0 ml sodium azide +1.0 ml DMSO); AS is the absorbance of sample group (1.0 ml glucose +1.0 ml bovine serum albumin +1.0 ml sodium azide +1.0 ml target compound solution or aminoguanidine hydrochloride solution); ASB is the absorbance of sample blank group (1.0 ml PBS +1.0 ml bovine serum albumin +1.0 ml sodium azide +1.0 ml target compound solution or aminoguanidine hydrochloride solution).

Where [3] appears, read: read-out: IC50 value, α-Glucosidase inhibitory activity.
The mark [4] stands for this setting: read-out: IC50 value, ALR2 inhibitory activity.
Where [5] appears, read: dose 40 mg/kg per os, 1.5 h vs 0 h.
Where [6] appears, read: dose 40 mg/kg per os, 3 h vs 0 h.
The mark [7] stands for this setting: dose 40 mg/kg per os, 5 h vs 0 h.
Where [8] appears, read: dose 40 mg/kg per os, 7 h vs 0 h.
Setting [9] is: dose 40 mg/kg per os, 9 h vs 0 h.

Where two headings read alike, the source gives them in different places.

T1 sequence (P53341 whole entry): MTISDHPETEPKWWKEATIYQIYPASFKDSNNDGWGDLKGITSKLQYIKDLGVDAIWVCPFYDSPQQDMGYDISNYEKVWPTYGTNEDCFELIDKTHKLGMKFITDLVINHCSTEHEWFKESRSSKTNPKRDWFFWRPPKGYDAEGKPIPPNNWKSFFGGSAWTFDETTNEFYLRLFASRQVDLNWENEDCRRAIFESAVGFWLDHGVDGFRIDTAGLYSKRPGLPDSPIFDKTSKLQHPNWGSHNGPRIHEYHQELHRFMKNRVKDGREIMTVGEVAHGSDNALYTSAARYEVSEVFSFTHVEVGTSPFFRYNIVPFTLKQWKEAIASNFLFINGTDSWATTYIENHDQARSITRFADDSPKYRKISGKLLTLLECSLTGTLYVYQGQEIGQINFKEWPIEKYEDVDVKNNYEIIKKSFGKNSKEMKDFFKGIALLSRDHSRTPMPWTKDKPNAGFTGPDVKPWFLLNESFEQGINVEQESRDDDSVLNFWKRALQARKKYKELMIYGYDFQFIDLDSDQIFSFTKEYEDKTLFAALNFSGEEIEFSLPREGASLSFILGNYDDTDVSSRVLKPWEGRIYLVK

As for `COc1cc(/C=C/c2ccc(O)cc2)cc(OC)c1` [Pterostilbene, reference compound], the IC50 is above 1000 µM at α-Glucosidase (setting [3]), above 1000 µM at aldose reductase (ALR2) (setting [4]) and 1.99 ± 0.51 µM in series [2]. Moreover, in series [1] (40 mg/kg of bw, STZ-diabetic animals, since 5 h and throughout the experiment), the hypoglycaemic effect is recorded as above 50%. Also, the Blood glucose concentration in series [1] (dose 40 mg/kg per os, 0 h) was 17.2 ± 7.0 mM; in series [1] (dose 40 mg/kg per os, 1.5 h), 12.1 ± 6.4 mM; in series [1] (dose 40 mg/kg per os, 3 h) it was 10.2 ± 6.2 mM; in series [1] (dose 40 mg/kg per os, 5 h), 8.4 ± 5.6 mM; in series [1] (dose 40 mg/kg per os, 7 h), 7.7 ± 5.3 mM; in series [1] (dose 40 mg/kg per os, 9 h), 6.9 ± 4.3 mM. In addition, the “% Variation of glycaemia” value in series [1] (setting [5]) is “–29.91%”; in series [1] (setting [6]) it was “–40.89%”; in series [1] (setting [7]), “–51.42%”; in series [1] (setting [8]), “–55.36%”; in series [1] (setting [9]), “–59.82%”.

On to `COc1cc(/C=C/c2ccc(OCCCCO[N+](=O)[O-])cc2)cc(OC)c1` [3b], for which the melting point lay in the range of 110.9 to 111.3 °C. Moreover, the IC50 on α-Glucosidase (setting [3]) was above 1000 µM. Moreover, the concentration for half-maximal inhibition (IC50) at aldose reductase (ALR2) (setting [4]) was above 1000 µM. The same compound gave a half-maximal inhibitory concentration (IC50) in series [2] of 2.39 ± 0.11 µM.

Compound `O=c1c(O)c(-c2ccc(O)c(O)c2)oc2cc(O)cc(O)c12` [Quercetin, reference compound] registered an IC50 against aldose reductase (ALR2) of 3.71 ± 0.29 µM.

As to `N=C(N)NN` [AG, amino guanidine, reference compound], the midpoint of inhibition in series [2], the IC50, lay at 283 ± 8.52 µM.

As to `COc1ccc(Cl)cc1C(=O)NCCc1ccc(S(=O)(=O)NC(=O)NC2CCCCC2)cc1` [Glibenclamide, reference compound], the Blood glucose concentration in series [1] (dose 10 mg/kg per os, 0 h) came out at 20.2 ± 5.4 mM; in series [1] (dose 10 mg/kg per os, 1.5 h), 11.6 ± 4.9 mM; in series [1] (dose 10 mg/kg per os, 3 h), 7.6 ± 3.9 mM; in series [1] (dose 10 mg/kg per os, 5 h), 6.1 ± 3.6 mM; in series [1] (dose 10 mg/kg per os, 7 h) it was 5.7 ± 3.6 mM; in series [1] (dose 10 mg/kg per os, 9 h), 5.6 ± 3.6 mM. Moreover, the “% Variation of glycaemia” value in series [1] (dose 10 mg/kg per os, 1.5 h vs 0 h) is reported as “–42.63%”; in series [1] (dose 10 mg/kg per os, 3 h vs 0 h) it was “–62.32%”; in series [1] (dose 10 mg/kg per os, 5 h vs 0 h) it was “–69.58%”; in series [1] (dose 10 mg/kg per os, 7 h vs 0 h) it was “–71.84%”; in series [1] (dose 10 mg/kg per os, 9 h vs 0 h) it was “–72.11%”.

With `COc1cc(/C=C/c2ccc(OCCO[N+](=O)[O-])cc2)cc(OC)c1` [3a, O4′-Nitrooxyethyl pterostilbene], the melting point lay in the range of 142.2 to 143.2 °C. At α-Glucosidase (setting [3]), the IC50 is above 1000 µM. For the same compound, the IC50 on aldose reductase (ALR2) (setting [4]) was above 1000 µM. Also, half-maximal inhibition in series [2] (IC50) was put at 2.9 ± 0.09 µM.

Regarding `Oc1ccc(/C=C/c2cc(O)cc(O)c2)cc1` [Resveratrol, reference compound], the figures for the IC50 (on α-Glucosidase; at aldose reductase (ALR2) (setting [4]); in series [2]) were 242 ± 17 µM, 17 ± 0.31 µM and 0.83 ± 0.21 µM, respectively. Besides, the Blood glucose concentration in series [1] (dose 40 mg/kg per os, 0 h) is listed as 20.0 ± 2.6 mM; in series [1] (dose 40 mg/kg per os, 1.5 h), 16.3 ± 2.9 mM; in series [1] (dose 40 mg/kg per os, 3 h) it was 14.0 ± 2.0 mM; in series [1] (dose 40 mg/kg per os, 5 h), 12.4 ± 2.1 mM; in series [1] (dose 40 mg/kg per os, 7 h), 11.2 ± 1.8 mM; in series [1] (dose 40 mg/kg per os, 9 h), 10.7 ± 1.4 mM. In addition, the “% Variation of glycaemia” value in series [1] (setting [5]) is “–18.42%”; in series [1] (setting [6]), “–29.83%”; in series [1] (setting [7]), “–38.08%”; in series [1] (setting [8]), “–44.25%”; in series [1] (setting [9]), “–46.33%”.
